Legend:
Mus musculus [1] = assay: Ratio of biodistributions in Athymic mice bearing human Tumor (KB) xenografts in Tumor (T) and Muscle (M); assay type: ADME, organism-based; conditions: in vivo
[2] = (§1) Ratio of biodistributions in Athymic mice bearing human Tumor (KB) xenografts in Tumor (T) and blood (B); assay type: ADME, organism-based; conditions: mouse, read-out: Biodistribution ratio
[3] = (§2) Ratio of biodistributions in Athymic mice bearing human Tumor (LS174T) xenografts in Tumor (T) and blood (B); assay type: ADME, organism-based; conditions: mouse, read-out: Biodistribution ratio
Mus musculus [4] = assay: Ratio of biodistributions in Athymic mice bearing human Tumor (LS174T) xenografts in Heart (H) and Lung (L); assay type: ADME, organism-based; conditions: in vivo
Mus musculus [5] = assay: Biodistribution in athymic mice bearing Human Tumor (TE671) Xenografts 1 hour after injection in Lung (L); assay type: ADME, organism-based; conditions: in vivo
[6] = (§3) Ratio of biodistributions in Athymic mice bearing human Tumor (LS174T) xenografts in Heart (H) and Blood (B); assay type: ADME, organism-based; conditions: mouse, read-out: Biodistribution ratio
Mus musculus [7] = assay: Biodistribution in athymic mice bearing Human Tumor (KB) Xenografts 1 hour after injection in Lung (L); assay type: ADME, organism-based; conditions: in vivo
Mus musculus [8] = assay: Ratio of biodistributions in Athymic mice bearing human Tumor (TE671) xenografts in Heart (H) and Lung (L); assay type: ADME, organism-based; conditions: in vivo
Mus musculus [9] = assay: Biodistribution in athymic mice bearing Human Tumor (TE671) Xenografts 1 hour after injection in Blood (B); assay type: ADME, organism-based; conditions: in vivo
Mus musculus [10] = assay: Biodistribution in athymic mice bearing Human Tumor (LS174T) Xenografts 1 hour after injection in Blood (B); assay type: ADME, organism-based; conditions: in vivo
Mus musculus [11] = assay: Biodistribution in athymic mice bearing Human Tumor (KB) Xenografts 1 hour after injection in Blood (B); assay type: ADME, organism-based; conditions: in vivo
Mus musculus [12] = assay: Biodistribution in athymic mice bearing Human Tumor (LS174T) Xenografts 1 hour after injection in Muscle (M); assay type: ADME, organism-based; conditions: in vivo
Mus musculus [13] = assay: Biodistribution in athymic mice bearing Human Tumor (KB) Xenografts 1 hour after injection in Muscle (M); assay type: ADME, organism-based; conditions: in vivo
[14] = (§4) Ratio of biodistributions in Athymic mice bearing human Tumor (TE671) xenografts in Tumor (T) and blood (B); assay type: ADME, organism-based; conditions: mouse, read-out: Biodistribution ratio
Mus musculus [15] = assay: Biodistribution in athymic mice bearing Human Tumor (LS174T) Xenografts 1 hour after injection in Tumor (T) cells; assay type: ADME, organism-based; conditions: in vivo
Mus musculus [16] = assay: Biodistribution in athymic mice bearing Human Tumor (LS174T) Xenografts 1 hour after injection in Lung (L); assay type: ADME, organism-based; conditions: in vivo
Mus musculus [17] = assay: Ratio of biodistributions in Athymic mice bearing human Tumor (LS174T) xenografts in Tumor (T) and Muscle (M); assay type: ADME, organism-based; conditions: in vivo
Mus musculus [18] = assay: Biodistribution in athymic mice bearing Human Tumor (KB) Xenografts 1 hour after injection in Heart (H); assay type: ADME, organism-based; conditions: in vivo
[19] = (§5) Ratio of biodistributions in Athymic mice bearing human Tumor (TE671) xenografts in Heart (H) and Blood (B); assay type: ADME, organism-based; conditions: mouse, read-out: Biodistribution ratio
Mus musculus [20] = assay: Biodistribution in athymic mice bearing Human Tumor (LS174T) Xenografts 1 hour after injection in Heart (H); assay type: ADME, organism-based; conditions: in vivo
Mus musculus [21] = assay: Ratio of biodistributions in Athymic mice bearing human Tumor (TE671) xenografts in Tumor (T) and Muscle (M); assay type: ADME, organism-based; conditions: in vivo
Mus musculus [22] = assay: Biodistribution in athymic mice bearing Human Tumor (TE671) Xenografts 1 hour after injection in Muscle (M); assay type: ADME, organism-based; conditions: in vivo
Homo sapiens [23] = assay: Biodistribution in athymic mice bearing Human Tumor (KB) Xenografts 1 hour after injection in Tumor (T) cells; assay type: ADME, organism-based; conditions: in vivo
Homo sapiens [24] = assay: Biodistribution in athymic mice bearing Human Tumor (TE671) Xenografts 1 hour after injection in Tumor (T) cells; assay type: ADME, organism-based; conditions: in vivo
[25] = (§6) Ratio of biodistributions in Athymic mice bearing human Tumor (KB) xenografts in Heart (H) and Blood (B); assay type: ADME, organism-based; conditions: mouse, read-out: Biodistribution ratio
Mus musculus [26] = assay: Ratio of biodistributions in Athymic mice bearing human Tumor (KB) xenografts in Heart (H) and Lung (L); assay type: ADME, organism-based; conditions: in vivo
Mus musculus [27] = assay: Biodistribution in athymic mice bearing Human Tumor (TE671) Xenografts 1 hour after injection in Heart (H); assay type: ADME, organism-based; conditions: in vivo
Mus musculus [28] = assay: as §1; assay type: ADME, organism-based
Mus musculus [29] = assay: as §2; assay type: ADME, organism-based, Blood/Heart
Mus musculus [30] = assay: as §3; assay type: ADME, organism-based
Mus musculus [31] = assay: as §4; assay type: ADME, organism-based, Blood/Heart
Mus musculus [32] = assay: as §5; assay type: ADME, organism-based
Mus musculus [33] = assay: as §6; assay type: ADME, organism-based

| Biodistribution ratio (Mus musculus [1]) | Biodistribution ratio (Mus musculus [4]) | Dose/g (Mus musculus [5]) | Dose/g (Mus musculus [7]) | Biodistribution ratio (Mus musculus [8]) | Dose/g (Mus musculus [9]) | Dose/g (Mus musculus [10]) | Dose/g (Mus musculus [11]) | Dose/g (Mus musculus [12]) | Dose/g (Mus musculus [13]) | Dose/g (Mus musculus [15]) | Dose/g (Mus musculus [16]) | Biodistribution ratio (Mus musculus [17]) | Dose/g (Mus musculus [18]) | Dose/g (Mus musculus [20]) | Biodistribution ratio (Mus musculus [21]) | Dose/g (Mus musculus [22]) | Dose/g (Homo sapiens [23]) | Dose/g (Homo sapiens [24]) | Biodistribution ratio (Mus musculus [26]) | Compound | also measured |
| --- | --- | --- | --- | --- | --- | --- | --- | --- | --- | --- | --- | --- | --- | --- | --- | --- | --- | --- | --- | --- | --- |
| 1.2 | 0.7 | 0.91% | 3.23% | 0.7 | 1.74% | 1.74% | 4.6% | 0.36% | 1.44% | 0.59% | 0.91% | 1.6 | 2.56% | 0.6% | 3.1 | 0.36% | 1.67% | 1.1% | 0.8 | COC(=O)c1ccccc1-c1c2ccc(=N)cc-2oc2cc(N)ccc12.[125IH] | Kp [2]: 0.36; Kp [3]: 0.34; Kp [6]: 0.5; Kp [14]: 0.63; Kp [19]: 0.5; Kp [25]: 0.6; Dose/g (Mus musculus [27]): 0.6% |
| 0.24 | 12 | 0.5% | 1.82% | 12 | 0.13% | 0.13% | 0.17% | 1.22% | 2.74% | 0.52% | 0.5% | 0.43 | 8.13% | 6% | 0.9 | 1.22% | 0.65% | 1.1% | 4.5 | Hexakis-(2-methoxyisobutylisonitrile)Technetium (99mTc-MIBI) | Biodistribution ratio (Mus musculus [28]): 3.8; Biodistribution ratio (Mus musculus [29]): 4; Biodistribution ratio (Mus musculus [30]): 46; Biodistribution ratio (Mus musculus [31]): 8.5; Biodistribution ratio (Mus musculus [32]): 46; Biodistribution ratio (Mus musculus [33]): 48; Dose/g (Mus musculus [27]): 6% |

Reference: ChEMBL document CHEMBL1131575, “[125I/127I/131I]Iodorhodamine: synthesis, cellular localization, and biodistribution in athymic mice bearing human tumor xenografts and comparison with [99mTc]hexakis(2-methoxyisobutylisonitrile)” (J Med Chem, 1998)
